Measurements published in US20180311238A1, “Selective Agonist Of a6 Containing nAChRs” (Saniona A/S, priority 2017, published 2018).

Assays:
[1] = tested on: nicotinic receptors in the brain; type: in vivo, mice
Procedure: Accumulation of ^3H-epibatidine occurs preferentially in brain regions containing nicotinic receptors. […] The specific binding in thalamus reaches a maximum 30 min after an i.v. injection of ^3H-epibatidine and this maximum is maintained for another 30 min.
All test substances were administered as solutions or suspensions prepared in vehicle (e.g. saline, water, 5% glucose, 0.5% CMC, 0.5% HPMC or 10% HPβCD) and tested in serial 1:3 dilutions. Doses were adjusted for salt.
Groups of three female NMRI mice (25 g) were administered vehicle or test substance p.o. at a volume of 0.75 ml. Mice were injected i.v. via the tail vein with 1 μCi of ^3H-epibatidine in 0.2 ml saline 45 min before decapitation. At the time of decapitation, the thalamus and a piece of cerebellum were rapidly dissected on ice. Tissues were weighed and dissolved for 36 h with 1 ml 2% sodium-laurylsulfate. The solubilized tissue was then added 2 ml of scintillation cocktail, and the amount of radioactivity in the tissue was counted by conventional liquid scintillation counting. Groups of vehicle-treated mice served as controls. Non-specific binding was defined as the amount of binding in cerebellum in vehicle treated mice.
Specific binding was determined as the amount of binding (dpm/5 mg tissue) in thalamus minus the amount of binding in cerebellum (dpm/5 mg tissue) in vehicle mice. […]

[2] = tested on: L-dopa-induced dyskinesia; assay: L-dopa-induced dyskinesia (AIMs) in 6-OHDA lesioned rats; type: in vivo, rat
Procedure: Adult male Sprague-Dawley rats (Harlan labs), ˜3 months old and weighing 250-275 grams, were housed in groups of 2 in a temperature- and humidity-controlled colony room that was maintained on a 12 hour light/dark cycle. Food and water were available ad libitum throughout the experiment with the exception that animals were food fasted for 12 hours prior to the surgical (6-OHDA lesion) procedure.
Prior to surgery, all animals were anesthetized and placed in the prone position. The hair was clipped from the head and the surgical site aseptically washed with betadine and alcohol. The animals head was fixed during surgery by a stereotaxic device and continuously anesthetized using isoflurane (1.5-2.0%) via a nosecone attached to the stereotaxic frame. […] The animals were monitored by the surgeon for suitable hemostasis and respiration. […]
For quantification of L-DOPA-induced AIMs, rats were placed in transparent plastic cages and observed during the first minute of every 30-minute period in the 2 hours following the injection of L-DOPA. […]
Each of the four subtypes was scored on a severity scale from 0 to 4. • 0=absent • 1=present during less than half of the observation time • 2=present for more than half of the observation time • 3=present all the time but suppressible by external stimuli • 4=present all the time and not suppressible by external stimuli. […]

## CN1C2CCCC1CN(c1cccnc1)C2 [9-methyl-3-pyridin-3-yl-3,9-diaza-bicyclo[3.3.1]nonane]
[1]; mice pre-dosed for 45 min, p.o.
  ED50, inhibition of specific binding of 3H-epibatidine: 1.3 mg/kg
[1]; mice, 2 mg/kg p.o., time course up to 6 hours
  maintained brain exposure (duration): at least 6 hours
[2]; 3.0 mg/kg
  L-dopa-induced AIMs, follow-up dose: did not further decrease L-dopa-induced AIMs
[2]; 0.1, 0.3, 1.0 mg/kg sc 30 minutes prior to L-dopa (8 mg/kg)
  L-dopa-induced AIMs: significant, dose-related decrease in AIMs with the 0.3 and 1.0 mg/kg doses reaching statistical significance relative to saline controls
